≈ marks a conversion by molar mass, not a printed value.
Assays:
Aspergillus flavus = assay: MIC, YAG medium, Aspergillus flavus; format: cell-based; details: YAG medium; for MIC: Aspergillus flavus, read-out: MIC A Flavus 01
Outline: (§1)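 Yeast: RPMI + 2% glucose + 0.135M MOPS pH7.0, 1-2×10^3 cfu/ml, 35° C 24-48 h, OD485, MIC at >80% inhib. Aspergillus: YAG (1% glucose, 1% NH4Cl, 0.5% yeast extract), spores 1-2×10^4 cfu/ml, 35° C 24 h, MIC at >70% inhib. Range 50-0.05 mg/L.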

[1] = test system: Aspergillus fumigatus AF293; assay: MIC, YAG medium, Aspergillus fumigatus AF293; format: cell-based; details: YAG medium; for MIC: Aspergillus fumigatus, AF293, read-out: MIC A Fum. 293
Outline: as §1

Aspergillus niger = assay: MIC, YAG medium, Aspergillus niger; format: cell-based; details: YAG medium; for MIC: Aspergillus niger, read-out: MIC A Niger 1
Outline: as §1

Aspergillus terreus = assay: MIC, YAG medium, Aspergillus terreus; format: cell-based; details: YAG medium; for MIC: Aspergillus terreus, read-out: MIC A Terreus 4
Outline: as §1

[2] = test system: Aspergillus fumigatus AF210; assay: MIC, YAG medium, Aspergillus fumigatus AF210; format: cell-based; details: YAG medium; for MIC: Aspergillus fumigatus, AF210, read-out: MIC A Fum. 210
Outline: as §1

A Terreus 49 = assay: MIC, YAG medium, A Terreus 49; format: cell-based, Aspergillus terreus; details: YAG medium; for MIC: Aspergillus terreus, read-out: MIC A Terreus 49
Description: Measurement of Minimum Inhibitory Concentrations (MICs)
Between 1 and 5 mgs of compound were accurately weighed out into a sterile Eppendorf tube. The compound was dissolved in DMSO to give a solution containing 5 mg/ml. Tubes were stored at −20° C. until required.
On the day of testing thawed solutions were vortex mixed to ensure homogeneity. 30 μl of solution was removed and added to 570 μl of sterile water in a separate sterile Eppendorf. The thoroughly mixed solution was used to prepare a series of doubling dilutions in water, in a deep well plate. Eleven replicate plates were prepared using a Minitrak by aspirating 20 μl from each well into eleven clear polystyrene 96 well plates.
Spores of Aspergillus spp (Aspergillus fumigatus, Aspergillus terreus, Aspergillus niger and Aspergillus flavus) were harvested from cultures grown on Sabarauds agar for 5 days, and resuspended in PBS/Tween 80 to approx 1×10^7 cfu/ml Other filamentous fungi (Fusarium solani, Scedosporium spp., Trichophyton spp., Absidia corymbifera), were grown on Sabarauds agar for 2-10 days and spores/hyphae resuspended in PBS/Tween to give approx 1×10^7 cfU/ml. Candida species (Candida albicans, Candida glabrata, Candida krusei, Candida parapsilosis and Candida tropicalis) were grown on Sabarauds agar, cells were harvested from the agar using a sterile loop and resuspended in PBS/Tween 80 to approx 1×10^6 cfu/ml. Each organism suspension was diluted in RPMI medium, containing 2% glucose and 0.135M MOPS buffer (pH7.0) to 2×10^4 cfu/ml for Aspergillus spp and other filamentous fungi and 2×10^3 cfu/ml for yeast. 80 μl of an organism suspension was added to each well of the plate containing drug dilutions.
This produced MIC plates with a drug range 50-0.05 mg/L and organism inocula of 1-2×10^4 cfu/ml for Aspergillus spp and other filamentous fungi and 1-2×10^3 cfu/ml for yeasts. All plates were incubated for 24-48 hrs at 35° C. Growth was assessed by monitoring the optical density at 485 nm for each well. The MIC of a compound is the lowest drug concentration that inhibits growth of an organism by >80% compared with a drug free control. MICs are recorded as mg/L. Other growth media can be used for susceptibility testing, and the activity of the described compounds can also be assessed in a medium comprising, 1% glucose, 1% ammonium chloride and 0.5% yeast extract (YAG medium). To perform MIC tests in this medium, dilutions of compounds are prepared in microtitre plates as described above. Fungal strains to be tested are grown and harvested in an identical manner to that described above, each organism suspension is then diluted in YAG medium to 2×10^4 cfu/ml for Aspergillus spp and other filamentous fungi and 2×10^3 cfu/ml for yeast. 80 μl of an organism suspension was added to each well of the plate containing drug dilutions. This produced MIC plates with a drug range 50-0.05 mg/L and organism inocula of 1-2×10^4 cfu/ml for Aspergillus spp and other filamentous fungi and 1-2×10^3 cfu/ml for yeasts. All plates were incubated for 24 hrs at 35° C. Growth was assessed by monitoring the optical density at 485 nm for each well. The MIC of a compound is the lowest drug concentration that inhibits growth of an organism by >70% compared with a drug free control. MICs are recorded as mg/L. In cases where the MIC of an organism is […]0.05 mg/L the MIC is repeated using a concentration range of 0.5-0.0005 mg/L. MIC tests in YAG medium have more clear-cut endpoints and have slightly lower MICS than those performed in RPMI medium.
The following organisms were tested: Aspergillus fumigatus AF293 and Aspergillus fumigatus AF210, Aspergillus niger, Aspergillus terreus, Aspergillus favus, Candida albicans, Candida krusei, Candida tropicalis, Candida glabrata, Candida parapsilosis, Trichophyton rubrum, Trichophyton mentagrophytes, Scedosporium prolificans, Scedosporium apiospermum, Absidia corymbifera, Fusarium solani.

| SMILES | MIC (Aspergillus flavus) [µg/mL] | MIC [1] [µg/mL] | MIC (Aspergillus niger) [µg/mL] | MIC (Aspergillus terreus) [µg/mL] | MIC [2] [µg/mL] | MIC (A Terreus 49) [µg/mL] | MIC A Flavus 01 (Aspergillus flavus) [µg/mL] | MIC A Fum. 293 [1] [µg/mL] | MIC A Niger 1 (Aspergillus niger) [µg/mL] | MIC A Terreus 4 (Aspergillus terreus) [µg/mL] | MIC A Fum. 210 [2] [µg/mL] | MIC A Terreus 49 (A Terreus 49) [µg/mL] |
| --- | --- | --- | --- | --- | --- | --- | --- | --- | --- | --- | --- | --- |
| COc1ccc(NC(=O)C(=O)c2c(-c3ccc(C)cc3)cc3ccccn23)cc1 [Example 238, N-(4-Methoxy-phenyl)-2-oxo-2-(2-p-tolyl-indolizin-3-yl)-acetamide] | 0.015 (≈ 0.039 µM) | 0.5 (≈ 1.3 µM) | 0.015 (≈ 0.039 µM) | 0.015 (≈ 0.039 µM) | 0.25 (≈ 0.65 µM) | 0.008 (≈ 0.0208 µM) |  |  |  |  |  |  |
| CS(=O)(=O)c1ccc(NC(=O)C(=O)c2c(-c3ccccc3)cc3ccccn23)cc1 [Example 257, N-(4-Methanesulfonyl-phenyl)-2-oxo-2-(2-phenyl-indolizin-3-yl)-acetamide] | 0.4 (≈ 0.956 µM) | 6.25 (≈ 14.9 µM) | 0.8 (≈ 1.91 µM) | 0.4 (≈ 0.956 µM) | 3.1 (≈ 7.41 µM) | 0.4 (≈ 0.956 µM) |  |  |  |  |  |  |
| CCCOC(=O)c1ccc(NC(=O)C(=O)c2c(-c3ccccc3)cc3ccccn23)cc1 [Example 143, 4-[2-Oxo-2-(2-phenyl-indolizin-3-yl)-acetylamino]-benzoic acid propyl ester] | 0.031 (≈ 0.0727 µM) | 0.061 (≈ 0.143 µM) | 0.015 (≈ 0.0352 µM) | 0.031 (≈ 0.0727 µM) | 0.06 (≈ 0.141 µM) | 0.008 (≈ 0.0188 µM) |  |  |  |  |  |  |
| COC(=O)c1ccc(NC(=O)C(=O)c2c(-c3ccccc3)cc3ccccn23)cc1 [Example 140, 4-[2-Oxo-2-(2-phenyl-indolizin-3-yl)-acetylamino]-benzoic acid methyl ester] | 0.031 (≈ 0.0778 µM) | 0.12 (≈ 0.301 µM) | 0.031 (≈ 0.0778 µM) | 0.031 (≈ 0.0778 µM) | 0.12 (≈ 0.301 µM) | 0.015 (≈ 0.0376 µM) |  |  |  |  |  |  |
| C=CCc1c(F)ccc(NC(=O)C(=O)c2c(-c3ccccc3)cc3ccccn23)c1OC [Example 254, N-(3-Allyl-4-fluoro-2-methoxy-phenyl)-2-oxo-2-(2-phenyl-indolizin-3-yl)-acetamide] | 0.4 (≈ 0.934 µM) | 1.6 (≈ 3.73 µM) | 0.4 (≈ 0.934 µM) | 0.1 (≈ 0.233 µM) | 0.8 (≈ 1.87 µM) | 0.2 (≈ 0.467 µM) |  |  |  |  |  |  |
| COC(=O)c1csc(NC(=O)C(=O)c2c(-c3ccccc3)cc3ccccn23)c1 [Example 154, 5-[2-Oxo-2-(2-phenyl-indolizin-3-yl)-acetylamino]-thiophene-3-carboxylic acid methyl ester] | 0.25 (≈ 0.618 µM) | 1.6 (≈ 3.96 µM) | 0.05 (≈ 0.124 µM) | 0.8 (≈ 1.98 µM) | 1.6 (≈ 3.96 µM) | 0.12 (≈ 0.297 µM) |  |  |  |  |  |  |
| CC(=O)Cc1ccc(NC(=O)C(=O)c2c(-c3ccccc3)cc3ccccn23)cc1 [Example 284, 2-Oxo-N-[4-(2-oxo-propyl)-phenyl]-2-(2-phenyl-indolizin-3-yl)-acetamide] | 0.05 (≈ 0.126 µM) | 0.1 (≈ 0.252 µM) | 0.05 (≈ 0.126 µM) | 0.05 (≈ 0.126 µM) | 0.1 (≈ 0.252 µM) | 0.015 (≈ 0.0378 µM) |  |  |  |  |  |  |
| O=C(O)COc1cccc(NC(=O)C(=O)c2c(-c3ccccc3)cc3ccccn23)c1 [Example 294, {3-[2-Oxo-2-(2-phenyl-indolizin-3-yl)-acetylamino]-phenoxy}-acetic acid] | 25 (≈ 60.3 µM) | 25 (≈ 60.3 µM) | 50 (≈ 121 µM) | 50 (≈ 121 µM) | > 50 | 25 (≈ 60.3 µM) |  |  |  |  |  |  |
| CCOC(=O)C(C)(Cc1ccccc1)NC(=O)C(=O)c1c(-c2ccccc2)cc2ccccn12 (stereo not drawn) [Example 249, 2-Methyl-2-[2-oxo-2-(2-phenyl-indolizin-3-yl)-acetylamino]-3-phenyl-propionic acid ethyl ester] | > 50 | 0.8 (≈ 1.76 µM) | 6.25 (≈ 13.8 µM) | 1.6 (≈ 3.52 µM) | 1.6 (≈ 3.52 µM) | 1.6 (≈ 3.52 µM) |  |  |  |  |  |  |
| Cc1ccccc1NC(=O)C(=O)c1c(-c2ccccc2)cc2ccccn12 [Example 202, 2-Oxo-2-(2-phenyl-indolizin-3-yl)-N-o-tolyl-acetamide] | 0.062 (≈ 0.175 µM) | 0.5 (≈ 1.41 µM) | 0.031 (≈ 0.0875 µM) | 0.008 (≈ 0.0226 µM) | 0.25 (≈ 0.705 µM) | 0.015 (≈ 0.0423 µM) |  |  |  |  |  |  |
| CN(Cc1ccccc1)C(=O)c1cccc(NC(=O)C(=O)c2c(-c3ccccc3)cc3ccccn23)c1 [Example 263, N-Benzyl-N-methyl-3-[2-oxo-2-(2-phenyl-indolizin-3-yl)-acetylamino]-benzamide] | 0.05 (≈ 0.103 µM) | 0.4 (≈ 0.82 µM) | 0.8 (≈ 1.64 µM) | 0.2 (≈ 0.41 µM) | 0.4 (≈ 0.82 µM) | 0.1 (≈ 0.205 µM) |  |  |  |  |  |  |
| COc1ccc(NC(=O)C(=NOCCCC(=O)O)c2c(-c3ccccc3)cc3ccccn23)cc1 (mixture of isomers) [Example 297, 4-[1-(4-Methoxy-phenylcarbamoyl)-1-(2-phenyl-indolizin-3-yl)-meth-(E/Z)-ylideneaminooxy]-butyric acid] |  |  |  |  |  |  | 0.4 | 12.5 | 1.6 | 0.8 | 12.5 | 0.4 |
| CC(C)(C#N)c1ccc(NC(=O)C(=O)c2c(-c3ccccc3)cc3ccccn23)cc1 [Example 221, N-[4-(Cyano-dimethyl-methyl)-phenyl]-2-oxo-2-(2-phenyl-indolizin-3-yl)-acetamide] | 0.015 (≈ 0.0368 µM) | 0.062 (≈ 0.152 µM) | 0.015 (≈ 0.0368 µM) | 0.015 (≈ 0.0368 µM) | 0.03 (≈ 0.0736 µM) | 0.008 (≈ 0.0196 µM) |  |  |  |  |  |  |
| O=C(Nc1ccc(-c2nccs2)cc1)C(=O)c1c(-c2ccccc2)cc2ccccn12 [Example 293, 2-Oxo-2-(2-phenyl-indolizin-3-yl)-N-(4-thiazol-2-yl-phenyl)-acetamide] | 0.05 (≈ 0.118 µM) | 0.1 (≈ 0.236 µM) | 0.008 (≈ 0.0189 µM) | 0.015 (≈ 0.0354 µM) | 0.4 (≈ 0.945 µM) | 0.004 (≈ 0.00945 µM) |  |  |  |  |  |  |
| C=CCOc1cc(F)ccc1NC(=O)C(=O)c1c(-c2ccccc2)cc2ccccn12 [Example 247, N-(2-Allyloxy-4-fluoro-phenyl)-2-oxo-2-(2-phenyl-indolizin-3-yl)-acetamide] | 1.6 (≈ 3.86 µM) | 3.1 (≈ 7.48 µM) | 3.1 (≈ 7.48 µM) | 0.4 (≈ 0.965 µM) | 3.1 (≈ 7.48 µM) | 0.2 (≈ 0.483 µM) |  |  |  |  |  |  |
